Data taken from ChEMBL document CHEMBL4321867, “Optimization of LpxC Inhibitor Lead Compounds Focusing on Efficacy and Formulation for High Dose Intravenous Administration” (J Med Chem, 2020).
In brackets after ≈: the same amount, converted by molar mass.

Experiments:
in vivo [1] = conditions: mouse, sc, 50 mg/kg
in vivo [2] = conditions: Wistar, rat, iv, 10 mg/kg
physchem [3] = conditions: buffer, pH 4
physchem [4] = conditions: buffer, pH 7
physchem [5] = conditions: buffer, pH 9
in vitro [6] = conditions: rat, hepatocytes
in vitro [7] = conditions: rat, liver microsomes
in vitro [8] = conditions: human, hepatocytes
in vitro [9] = conditions: human, liver microsomes
in vitro [10] = conditions: rat, plasma
Escherichia coli [11] = test: microbe, parasite or virus in culture; conditions: ATCC 25922
Klebsiella pneumoniae [12] = test: microbe, parasite or virus in culture; conditions: T6474
Pseudomonas aeruginosa [13] = test: microbe, parasite or virus in culture; conditions: ATCC 27853
[14] = tested on: T1, UDP-3-O-acyl-N-acetylglucosamine deacetylase (Escherichia coli K-12), P0A725 [C125S]; conditions: 25 uM
T1 sequence (whole entry): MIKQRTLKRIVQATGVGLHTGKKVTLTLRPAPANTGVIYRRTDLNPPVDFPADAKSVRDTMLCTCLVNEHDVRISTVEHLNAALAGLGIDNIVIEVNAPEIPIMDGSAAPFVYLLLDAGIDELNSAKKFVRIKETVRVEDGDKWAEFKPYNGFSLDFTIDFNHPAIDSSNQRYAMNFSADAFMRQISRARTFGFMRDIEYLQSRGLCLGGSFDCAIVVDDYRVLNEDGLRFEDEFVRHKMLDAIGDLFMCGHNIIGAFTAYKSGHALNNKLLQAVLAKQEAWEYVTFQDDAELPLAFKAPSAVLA

[15] = tested on: T2, UDP-3-O-acyl-N-acetylglucosamine deacetylase (Pseudomonas aeruginosa (strain ATCC 15692 / PAO1 / 1C / PRS 101 / LMG12228)), P47205 [C40S]; conditions: 25 uM
T2 sequence (whole entry): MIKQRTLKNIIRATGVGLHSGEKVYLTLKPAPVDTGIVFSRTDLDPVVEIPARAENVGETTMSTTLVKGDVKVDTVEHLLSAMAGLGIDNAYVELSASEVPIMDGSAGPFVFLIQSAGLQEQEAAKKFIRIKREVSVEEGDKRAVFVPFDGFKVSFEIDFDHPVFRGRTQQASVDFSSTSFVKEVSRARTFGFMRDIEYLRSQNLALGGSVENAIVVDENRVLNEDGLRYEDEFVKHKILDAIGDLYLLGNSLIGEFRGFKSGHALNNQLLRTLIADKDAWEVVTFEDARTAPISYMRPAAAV

in vivo [16] = conditions: mouse, sc, 150 mg/kg
physchem [17] = conditions: n-octanol/phosphate buffer, pH 7.4
physchem [18] = test: physchem
physchem [19] = conditions: 5% mannitol/water, pH 4.5
Citrobacter freundii = test: microbe, parasite or virus in culture
Klebsiella aerogenes = test: microbe, parasite or virus in culture
Enterobacter cloacae = test: microbe, parasite or virus in culture
Escherichia coli [20] = test: microbe, parasite or virus in culture
Klebsiella oxytoca = test: microbe, parasite or virus in culture
Klebsiella pneumoniae [21] = test: microbe, parasite or virus in culture
Morganella morganii = test: microbe, parasite or virus in culture
Proteus mirabilis = test: microbe, parasite or virus in culture
Serratia marcescens = test: microbe, parasite or virus in culture
Acinetobacter baumannii = test: microbe, parasite or virus in culture
Burkholderia cepacia = test: microbe, parasite or virus in culture
Haemophilus influenzae = test: microbe, parasite or virus in culture
Moraxella catarrhalis = test: microbe, parasite or virus in culture
Pseudomonas aeruginosa [22] = test: microbe, parasite or virus in culture
[23] = tested on: Stenotrophomonas maltophilia; test: microbe, parasite or virus in culture
physchem [24] = conditions: 5% mannitol/water, pH 8.4

C[C@@](CCN1Cc2cc(C#CC#C[C@H]3C[C@@H]3CO)cn2C1=O)(C(=O)NO)S(C)(=O)=O gave an AUC(0-t) at 24 h (in vivo [1]) of 124 µg·h/mL, a clearance at 24 h (in vivo [2]) of 1.02 L/h/kg and a solubility at 24 h (physchem [3]) of 0.6 mg/mL (≈ 1380 µM). The solubility at 24 h (physchem [4]) was 0.588 mg/mL (≈ 1360 µM), the solubility at 24 h (physchem [5]) was 0.628 mg/mL (≈ 1450 µM) and the hepatocyte CLint at 1 µM (in vitro [6]) was 19 µL/min/1e6 cells. The microsomal CLint at 1 µM (in vitro [7]) was < 10 µL/min/mg, the hepatocyte CLint at 1 µM (in vitro [8]) was 3.2 µL/min/1e6 cells and the microsomal CLint at 1 µM (in vitro [9]) was < 10 µL/min/mg. For the same compound, the fraction unbound at 1 µM (in vitro [10]) was 0.008, the MIC (Escherichia coli [11]) was 0.12 mg/L (≈ 0.277 µM) and the MIC (Klebsiella pneumoniae [12]) was 0.25 mg/L (≈ 0.577 µM). The MIC (Pseudomonas aeruginosa [13]) was 0.25 mg/L (≈ 0.577 µM).

CN1CC(C#CC#Cc2cc3n(c2)C(=O)N(CC[C@](C)(C(=O)NO)S(C)(=O)=O)C3)C1 gave a deltaTm [14] of 8.9 K, a deltaTm [15] of 9.9 K and an AUC(0-t) at 24 h (in vivo [16]) of 52.9 µg·h/mL. The clearance at 24 h (in vivo [2]) was 1.08 L/h/kg, the logD (physchem [17]) was 0.3 and the pKa (physchem [18]) was 8.4. The solubility at 24 h (physchem [3]) was > 0.73 mg/mL, the solubility at 24 h (physchem [4]) was > 0.73 mg/mL and the solubility at 24 h (physchem [5]) was > 0.73 mg/mL. The hepatocyte CLint at 1 µM (in vitro [6]) was 8.6 µL/min/1e6 cells, the microsomal CLint at 1 µM (in vitro [7]) was 665 µL/min/mg and the hepatocyte CLint at 1 µM (in vitro [8]) was < 2 µL/min/1e6 cells. It also gave a microsomal CLint at 1 µM (in vitro [9]) of 48 µL/min/mg, a fraction unbound at 1 µM (in vitro [10]) of 0.19 and a solubility (physchem [19]) of 30 mg/mL (≈ 69400 µM). For the same compound, the MIC (Escherichia coli [11]) was 0.5 mg/L (≈ 1.16 µM), the MIC (Klebsiella pneumoniae [12]) was 0.5 mg/L (≈ 1.16 µM) and the MIC (Pseudomonas aeruginosa [13]) was 0.5 mg/L (≈ 1.16 µM). For the same compound, the MIC90 (Citrobacter freundii) was 1 mg/L (≈ 2.31 µM), the MIC90 (Klebsiella aerogenes) was 1 mg/L (≈ 2.31 µM) and the MIC90 (Enterobacter cloacae) was 4 mg/L (≈ 9.25 µM). For the same compound, the MIC90 (Escherichia coli [20]) was 1 mg/L (≈ 2.31 µM), the MIC90 (Klebsiella oxytoca) was 4 mg/L (≈ 9.25 µM) and the MIC90 (Klebsiella pneumoniae [21]) was 4 mg/L (≈ 9.25 µM). For the same compound, the MIC90 (Morganella morganii) was 0.5 mg/L (≈ 1.16 µM), the MIC90 (Proteus mirabilis) was 1 mg/L (≈ 2.31 µM) and the MIC90 (Serratia marcescens) was 0.5 mg/L (≈ 1.16 µM). For the same compound, the MIC90 (Acinetobacter baumannii) was > 16 mg/L, the MIC90 (Burkholderia cepacia) was 16 mg/L (≈ 37 µM) and the MIC90 (Haemophilus influenzae) was ≤ 0.03 mg/L. For the same compound, the MIC90 (Moraxella catarrhalis) was > 16 mg/L, the MIC90 (Pseudomonas aeruginosa [22]) was 2 mg/L (≈ 4.62 µM) and the MIC90 [23] was > 16 mg/L.

With O=C(O)c1cn(C2CC2)c2cc(N3CCNCC3)c(F)cc2c1=O [CIPROFLOXACIN] the MIC90 (Citrobacter freundii) was 0.125 mg/L (≈ 0.377 µM), the MIC90 (Klebsiella aerogenes) was 0.03 mg/L (≈ 0.0905 µM) and the MIC90 (Escherichia coli [20]) was > 8 mg/L. For the same compound, the MIC90 (Klebsiella oxytoca) was ≤ 0.016 mg/L, the MIC90 (Klebsiella pneumoniae [21]) was > 8 mg/L and the MIC90 (Morganella morganii) was ≤ 0.016 mg/L. The MIC90 (Proteus mirabilis) was 0.125 mg/L (≈ 0.377 µM), the MIC90 (Serratia marcescens) was 0.25 mg/L (≈ 0.754 µM) and the MIC90 (Acinetobacter baumannii) was > 8 mg/L. The MIC90 (Burkholderia cepacia) was 8 mg/L (≈ 24.1 µM), the MIC90 (Haemophilus influenzae) was ≤ 0.016 mg/L and the MIC90 (Moraxella catarrhalis) was 1 mg/L (≈ 3.02 µM). The MIC90 (Pseudomonas aeruginosa [22]) was > 8 mg/L and the MIC90 [23] was 8 mg/L (≈ 24.1 µM).

For C[C@@](CCN1Cc2cc(C#CC#CC3CN(CCF)C3)cn2C1=O)(C(=O)NO)S(C)(=O)=O, the deltaTm [14] was 10.6 K, the deltaTm [15] was 12.9 K and the AUC(0-t) at 24 h (in vivo [16]) was 49.1 µg·h/mL. The clearance at 24 h (in vivo [2]) was 2.28 L/h/kg, the logD (physchem [17]) was 1 and the pKa (physchem [18]) was 6.7. The solubility at 24 h (physchem [3]) was > 0.78 mg/mL, the solubility at 24 h (physchem [4]) was 0.247 mg/mL (≈ 532 µM) and the solubility at 24 h (physchem [5]) was > 0.78 mg/mL. For the same compound, the hepatocyte CLint at 1 µM (in vitro [6]) was 15.4 µL/min/1e6 cells, the microsomal CLint at 1 µM (in vitro [7]) was > 1250 µL/min/mg and the hepatocyte CLint at 1 µM (in vitro [8]) was < 2 µL/min/1e6 cells. For the same compound, the microsomal CLint at 1 µM (in vitro [9]) was < 10 µL/min/mg, the fraction unbound at 1 µM (in vitro [10]) was 0.067 and the solubility (physchem [19]) was 25 mg/mL (≈ 53800 µM). It also gave an MIC (Escherichia coli [11]) of 0.06 mg/L (≈ 0.129 µM), an MIC (Klebsiella pneumoniae [12]) of 0.25 mg/L (≈ 0.538 µM) and an MIC (Pseudomonas aeruginosa [13]) of 0.5 mg/L (≈ 1.08 µM). It also gave an MIC90 (Citrobacter freundii) of 0.5 mg/L (≈ 1.08 µM), an MIC90 (Klebsiella aerogenes) of 1 mg/L (≈ 2.15 µM) and an MIC90 (Enterobacter cloacae) of 1 mg/L (≈ 2.15 µM). It also gave an MIC90 (Escherichia coli [20]) of 0.25 mg/L (≈ 0.538 µM), an MIC90 (Klebsiella oxytoca) of 0.125 mg/L (≈ 0.269 µM) and an MIC90 (Klebsiella pneumoniae [21]) of 2 mg/L (≈ 4.31 µM). The MIC90 (Morganella morganii) was 0.25 mg/L (≈ 0.538 µM), the MIC90 (Proteus mirabilis) was 0.5 mg/L (≈ 1.08 µM) and the MIC90 (Serratia marcescens) was 0.25 mg/L (≈ 0.538 µM). The MIC90 (Acinetobacter baumannii) was > 16 mg/L, the MIC90 (Burkholderia cepacia) was 4 mg/L (≈ 8.61 µM) and the MIC90 (Haemophilus influenzae) was ≤ 0.03 mg/L. The MIC90 (Moraxella catarrhalis) was > 16 mg/L, the MIC90 (Pseudomonas aeruginosa [22]) was 1 mg/L (≈ 2.15 µM) and the MIC90 [23] was > 16 mg/L.

With C[C@@](CCN1Cc2cc(C#CC#C[C@@H]3C[C@@]3(F)CO)cn2C1=O)(C(=O)NO)S(C)(=O)=O the AUC(0-t) at 24 h (in vivo [16]) was 236 µg·h/mL, the clearance at 24 h (in vivo [2]) was 0.312 L/h/kg and the logD (physchem [17]) was 0.9. The solubility at 24 h (physchem [3]) was 0.22 mg/mL (≈ 487 µM), the solubility at 24 h (physchem [4]) was 0.248 mg/mL (≈ 549 µM) and the solubility at 24 h (physchem [5]) was > 0.76 mg/mL. For the same compound, the hepatocyte CLint at 1 µM (in vitro [6]) was 13 µL/min/1e6 cells, the microsomal CLint at 1 µM (in vitro [7]) was 12 µL/min/mg and the hepatocyte CLint at 1 µM (in vitro [8]) was < 2 µL/min/1e6 cells. For the same compound, the microsomal CLint at 1 µM (in vitro [9]) was < 10 µL/min/mg, the fraction unbound at 1 µM (in vitro [10]) was 0.017 and the solubility (physchem [24]) was 1 mg/mL (≈ 2210 µM). For the same compound, the MIC (Escherichia coli [11]) was 0.25 mg/L (≈ 0.554 µM), the MIC (Klebsiella pneumoniae [12]) was 0.5 mg/L (≈ 1.11 µM) and the MIC (Pseudomonas aeruginosa [13]) was 0.5 mg/L (≈ 1.11 µM). For the same compound, the MIC90 (Citrobacter freundii) was 1 mg/L (≈ 2.21 µM), the MIC90 (Klebsiella aerogenes) was 2 mg/L (≈ 4.43 µM) and the MIC90 (Enterobacter cloacae) was 4 mg/L (≈ 8.86 µM). The MIC90 (Escherichia coli [20]) was 2 mg/L (≈ 4.43 µM), the MIC90 (Klebsiella oxytoca) was 4 mg/L (≈ 8.86 µM) and the MIC90 (Klebsiella pneumoniae [21]) was 4 mg/L (≈ 8.86 µM). The MIC90 (Morganella morganii) was 0.5 mg/L (≈ 1.11 µM), the MIC90 (Proteus mirabilis) was 2 mg/L (≈ 4.43 µM) and the MIC90 (Serratia marcescens) was 1 mg/L (≈ 2.21 µM). The MIC90 (Acinetobacter baumannii) was > 16 mg/L, the MIC90 (Burkholderia cepacia) was 2 mg/L (≈ 4.43 µM) and the MIC90 (Haemophilus influenzae) was ≤ 0.03 mg/L. For the same compound, the MIC90 (Moraxella catarrhalis) was > 16 mg/L, the MIC90 (Pseudomonas aeruginosa [22]) was 2 mg/L (≈ 4.43 µM) and the MIC90 [23] was > 16 mg/L.
